Columns and labels:
[1] = tested on: Klebsiella pneumoniae lung inflammation model; type: in vivo, mouse
[2] = mouse, in vivo
[3] = tested on: Klebsiella pneumoniae lung inflammation model; type: in vivo, mouse; settings: excised tissue, 18 hr post injection, control n=4, Klebsiella-infected n=6 mice
neutrophil FPR = settings: read-out: Kd for neutrophil FPR; unaltered parent peptide, antagonist; cited from earlier work

Substance	Average lung SUV, control mice ([1]; PET 18 hr post injection, n=4, mean ± SD)	Average lung SUV, Klebsiella infected mice ([1]; PET 18 hr post injection, n=6, mean ± SD)	Ligand half-life in the control lung ([1]; mouse, in vivo) [h]	Ligand half-life in the infected lung ([1]; mouse, in vivo) [h]	Blood half-life [2]	Blood clearance (biological) half-life ([2]; iv) [min]	Mean ratio of radioactivity in infected to control lungs [3]	Kd (neutrophil FPR) [nM]
cFLFLF-PEG76-DOTA-^64Cu [cFLFLFK-PEG-^64Cu]	0.028 ± 0.003	0.142 ± 0.054	4.8 ± 0.7	10.3 ± 2.9	approximately 1 hour	55 ± 8	3.8	
N-cinnamoyl-F-(D)L-F-(D)L-F [cFLFLF]								2

Reference: publication PMC3004780 (Journal of nuclear medicine : official publication, Society …, 2009)
